2 molecules from US10098974B2, “Catalytic radiofluorination” (priority 2004, dated 2018) can be followed below.

Like-named read-outs stand apart in the source and are kept apart here.

For series [1] the following is noted: rabbit.
Experimental: (§1) Rats (250-300 grams) or rabbits (3-4 Kg) were anesthetized and placed ventrally to the imaging position and 0.4-1 mCi of the FTPP was injected into the vain. Three-dimensional dynamic data were acquired in list mode for one hour starting from the injection of the radiolabeled ligand.
(§2) PET imaging was conducted with a microPET, P4 system (Concorde Microsystems Inc, Knoxville, Tenn.). The length of the field of view is 8 cm and the diameter is 22 cm allowing entire upper body imaging of the rat or rabbit during a single acquisition. The imaging parameters of this system are in-plane and axial resolution of 1.2 mm full width of photopeak measured at half maximal count.
The rabbit was anesthetized, placed in the microPET camera (body marks in the camera positioning were made) and sequential images were obtained for ten minutes following the administration of 3 mCi of N-13-ammonia (FIG. 10). One hour later, FTPP was injected followed by 60 minute sequential imaging of the rabbit (FIG. 11). Image corrections for the remaining N-13-ammonia activity were made with an appropriate program. One day later, the same rabbit underwent an LAD occlusion protocol, positioned in the same camera field of view and the above dual agent imaging sequence was repeated.
For series [2] the following is noted: rat, microPET.
Experimental: as §1, §2
Series [3] is described as follows: Biodistribution of FTTP in rats after intravenous administration.
Series [4] concerns C-6BAG glioma. As to conditions: period of 240 minutes.
Series [5] concerns CV-1 normal cell line.
Series [6] relates to MCF-7. To be noted: MCF-7, period of 240 minutes.
Series [7] relates to C6 glioma cell line. To be noted: from maximum accumulation at 30 minutes.
Where [8] appears, read: 5 min post administration (Table 1).
Setting [9] is: 30 min post administration (Table 1).
[10] abbreviates: 60 min post administration (Table 1).

Consider `O=[N+]([O-])[O-].[18F]c1ccc([P+](c2ccccc2)(c2ccccc2)c2ccccc2)cc1` [FTTP, [F-18]-(4-fluorophenyl)triphenylphosphonium nitrate], for which the myocardial retention result in series [1] (late images at 60 min) was “high myocardial retention”. Further, the “time after injection at which heart activity reaches a plateau” value in series [1] (microPET) was determined as 1 min. In series [2], the “time after injection at which heart activity reaches a plateau” value stood at 1 min. Moreover, in series [3] (setting [8]), the Heart/Blood ratio is 11 % ID/g, the Heart/Liver ratio came to 5 % ID/g and the Heart/Lung ratio is given as 2 % ID/g. In series [3] (setting [9]), the Heart/Blood ratio stood at 75 % ID/g, the Heart/Liver ratio turned out to be 8 % ID/g and the Heart/Lung ratio worked out at 5 % ID/g. Moreover, in series [3] (setting [10]), the Heart/Blood ratio came to 70 % ID/g, the Heart/Liver ratio amounted to 8 % ID/g and the Heart/Lung ratio was 4 % ID/g. Besides, in series [3] (iv, 5 min), the “Bone accumulation (indication of defluorination)” value is 0.31 ID/g, the Heart-to-lung ratio came to 2.4, the Lung activity amounted to 0.69 ID/g and the “accumulation in heart relative to blood” value is given as 11 fold. In addition, in series [3] (iv, 5 min), the “accumulation in heart relative to liver” value amounted to 5 fold, the “accumulation in the heart” value is recorded as 1.64 ID/g and the liver uptake was 0.18 ID/g. Also, in series [3] (iv, 30 min), the Heart-to-lung ratio came to 5.0, the Lung activity is 0.30 ID/g, the liver uptake came to 0.17 ID/g and the “uptake of radioactivity in the heart” value is on record as 1.5 ID/g. In series [3] (iv, 60 min), the “Bone accumulation (indication of defluorination)” value was 0.39 ID/g, the Heart-to-lung ratio stood at 3.2, the Lung activity stood at 0.38 ID/g and the liver uptake came out at 0.17 ID/g.
Take “[I-125]-p-iodophenyltriphenylphosponium nitrate [TPPI]”: the cell retention result in series [4] is “High retention”; in series [6] it was “High retention”; in series [7] it was “partial washout”. For the same molecule, the cell uptake result in series [5] was “no significant uptake”.
